Data published in patent US20250206761A1, “HALOINDOLE MACROCYCLIC COMPOUNDS FOR THE TREATMENT OF CANCER” (Hoffmann-La Roche Inc., priority 2022, published 2025).

What was measured:
[1] = test system: phosphorylation of ERK, KRAS G12D in AGS cells; assay: pERK inhibition assay, KRAS G12D; format: cell-based, human; details: Homo sapiens, 4 hours
Protocol: This assay is to measure the ability of test compounds in inhibiting the phosphorylation of ERK, the downstream signaling of KRAS G12C in NCJ-H358 cells, KRAS G12D in AGS cells, and KRAS G12V in SW620. NCJ-H358 (ATCC-CRL5807) cells, AGS (ATCC-CRL-1739) cells, SW620 (ATCC-CCL-227) cells were all grown and maintained using RPMI-1640 medium (Thermo Fisher Scientific) with 10% fetal bovine serum and 1% penicillin/streptomycin. On the day prior to compound addition, cells were plated in tissue culture-treated 96 well plates (Corning-3699) at a density of 30,000 cell/well, 20,000 cell/well, 30,000 cell/well for NCJ-H358, AGS and SW620 respectively, and allowed for attachment overnight. Diluted compounds were then added in a final concentration of 0.5% DMSO. After 4 hours of incubation, the medium was removed, 100 μL of 4% formaldehyde was added, and the assay plates were incubated at room temperature for 20 minutes. The plates were then washed once with phosphate buffered saline (PBS), and permeabilized with 100 μL of chilled methanol for 10 minutes. Non-specific antibody binding to the plates was blocked using 50 μL 1×BSA blocking buffer (Thermo-37520, 10-fold dilution by Phosphate-Buffered Saline Tween (PBST) for at least 1 hour at room temperature.
The amount of phosphor-ERK was determined using an antibody specific for phosphorylated form of ERK. Primary antibody (pERK, CST-4370, Cell Signaling Technology) was diluted 1:300 in blocking buffer, with 50 μL aliquoted to each well, and incubated overnight at 4′° C. Cells was washed five times for 5 minutes with PBST. Secondary antibody ([…] anti-rabbit IgG, CST-7074, Cell Signaling Technology) was diluted 1:1000 in blocking buffer, and 50 μL was added to each well and incubated 1-2 hrs at room temperature. Cells was washed 5 times for 5 minutes with PBST, 100 μL TMB ELISA substrate (abcam-ab171523) were added and gently shake for 20 minutes. 50 μL stop solution (abcam-ab171529) were added, and then read the signal (OD450) by EnVision.
IC50 was determined by fitting a 4-parameter sigmoidal concentration response model.

[2] = test system: phosphorylation of ERK, KRAS G12V in SW620; assay: pERK inhibition assay, KRAS G12V; format: cell-based, human; details: Homo sapiens, SW-620, SW620, 4 hours
Outline: (§1)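 Read-out is OD450 from a TMB colorimetric cell ELISA using a phospho-ERK-specific antibody and HRP-linked secondary. Compounds were incubated with the cells for 4 hours at 0.5% DMSO before fixation and permeabilization. IC50 values come from 4-parameter concentration-response fitting.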

[3] = test system: NCI-H358 (ATCC-CRL5807) cells; assay: Cell viability assay, G12C (NCI-H358); format: cell-based, human; details: Homo sapiens; KRAS cell viability, NCI-H358, 72 hrs, Cell Counting Kit-8
Outline: (§2)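 After overnight attachment, cells received compounds (0.5% DMSO) for 72 hrs; viability was then quantified with CCK-8, reading OD450 minus OD650, and IC50 values were obtained from a 4-parameter concentration-response fit.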

SW620 (ATCC-CCL-227) = assay: Cell viability assay, G12V (SW620); format: cell-based, human; details: Homo sapiens, SW-620; KRAS cell viability, SW620, 72 hrs, Cell Counting Kit-8
Outline: as §2

[4] = test system: AGS (ATCC-CRL-1739) cells; assay: Cell viability assay, G12D (AGS); format: cell-based, human; details: Homo sapiens, KRAS cell viability, 72 hrs, Cell Counting Kit-8
Outline: as §2

[5] = test system: phosphorylation of ERK, KRAS G12C in NCJ-H358 cells; assay: pERK inhibition assay, KRAS G12C; format: cell-based, human; details: Homo sapiens, 4 hours
Outline: as §1

KRAS G12C-BRAF complex = KRAS G12C-BRAF complex (Homo sapiens (Human), UniProt P01116+P62937, G12C); assay: KRAS-BRAF with CYPA (500 nM) interaction assay (TR-FRET), G12C; format: biochemical
[6] = molecular target: KRAS G12V binding to BRAF (Homo sapiens (Human), UniProt P01116+P62937, G12V); assay: KRAS-BRAF with CYPA (500 nM) interaction assay (TR-FRET), G12V; format: biochemical
Outline: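 A TR-FRET assay measured how compound, in the presence of CYPA, disrupts binding of GMPPNP-loaded 6His-KRAS G12V to BRAF. The buffer contained 25 mM HEPES PH=7.4, 0.002% Tween20, 0.1% BSA, 100 mM NaCl, 5 mM MgCl2 and 10 μM GMPPNP. Compounds ran as a 16-point 3-fold dilution series from 10 μM for 3 hours.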

[7] = molecular target: KRAS G12D binding to BRAF (Homo sapiens (Human), UniProt P01116+P62937, G12D); assay: KRAS-BRAF with CYPA (500 nM) interaction assay (TR-FRET), G12D; format: biochemical
Sequence of KRAS G12D binding to BRAF (P01116-2 other isoform, or with tags, fused parts or gaps G12D): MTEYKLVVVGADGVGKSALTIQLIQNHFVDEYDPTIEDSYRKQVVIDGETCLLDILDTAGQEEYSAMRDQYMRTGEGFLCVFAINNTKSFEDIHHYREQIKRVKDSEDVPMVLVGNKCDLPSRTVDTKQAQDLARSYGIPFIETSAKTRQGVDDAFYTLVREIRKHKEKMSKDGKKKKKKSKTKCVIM
Sequence of KRAS G12D binding to BRAF (P62937 whole entry): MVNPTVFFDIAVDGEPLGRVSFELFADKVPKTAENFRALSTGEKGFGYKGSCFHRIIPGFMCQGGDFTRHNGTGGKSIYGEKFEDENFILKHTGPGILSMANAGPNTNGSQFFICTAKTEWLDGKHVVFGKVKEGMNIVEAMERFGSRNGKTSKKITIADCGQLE

Sequence of KRAS G12V binding to BRAF (P01116-2 other isoform, or with tags, fused parts or gaps G12V): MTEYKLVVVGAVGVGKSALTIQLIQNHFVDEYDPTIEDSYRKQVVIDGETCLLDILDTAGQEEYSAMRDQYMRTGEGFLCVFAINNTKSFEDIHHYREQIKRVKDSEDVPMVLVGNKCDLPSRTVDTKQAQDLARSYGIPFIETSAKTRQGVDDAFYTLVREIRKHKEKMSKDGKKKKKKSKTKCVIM
Sequence of KRAS G12V binding to BRAF (P62937 whole entry): as the sequence (P62937 whole entry) above
Sequence of KRAS G12C-BRAF complex (P01116-2 other isoform, or with tags, fused parts or gaps G12C): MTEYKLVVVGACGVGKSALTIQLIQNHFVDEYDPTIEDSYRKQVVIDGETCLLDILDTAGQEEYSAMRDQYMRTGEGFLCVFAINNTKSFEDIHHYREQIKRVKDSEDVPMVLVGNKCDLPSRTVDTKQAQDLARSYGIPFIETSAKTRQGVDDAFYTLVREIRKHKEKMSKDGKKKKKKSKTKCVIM
Sequence of KRAS G12C-BRAF complex (P62937 whole entry): as the sequence (P62937 whole entry) above

| SMILES | IC50 [1] | IC50 [2] | IC50 [3] | IC50 (SW620 (ATCC-CCL-227)) | IC50 [4] | IC50 [5] | IC50 (KRAS G12C-BRAF complex) | IC50 [6] | IC50 [7] |
| --- | --- | --- | --- | --- | --- | --- | --- | --- | --- |
| CO[C@@H](C)c1ncc(N2CCN(C)CC2)cc1-c1c2c3c(F)c(ccc3n1CC(F)(F)F)-c1csc(n1)C[C@H](NC(=O)[C@H](C(C)C)N(C)C(=O)[C@H]1CCN(C(=O)[C@H](F)Cl)C1)C(=O)N1CCC[C@H](N1)C(=O)OCC(C)(C)C2 (atropisomer, axis not shown; (M)) [Example 1, (3S)-1-[(2R)-2-chloro-2-fluoro-acetyl]-N-[(1S)-1-[[(7S,13S)-25-fluoro-(20M)-20-[2-[(1S)-1-methoxyethyl]-5-(4-methylpiperazin-1-yl)-3-pyridyl]-17,17-dimethyl-8,14-dioxo-21-(2,2,2-trifluoroethyl)-15-oxa-4-thia-9,21,27,28-tetrazapentacyclo[17.5.2.1^2,5.1^9,13.0^22,26]octacosa-1(25),2,5(28),19,22(26),23-hexaen-7-yl]carbamoyl]-2-methyl-propyl]-N-methyl-pyrrolidine-3-carboxamide] | 137 nM | 55 nM | 5 nM | 92 nM | 390 nM | 7 nM |  |  |  |
| CO[C@@H](C)c1ncc(N2CCOCC2)cc1-c1c2c3cc(c(F)cc3n1CC(F)(F)F)-c1csc(n1)C[C@H](NC(=O)[C@H](C(C)C)N(C)C(=O)[C@H]1CCN(C(=O)[C@H](F)Cl)C1)C(=O)N1CCC[C@H](N1)C(=O)OCC(C)(C)C2 (atropisomer, axis not shown; (M)) [Example 24, (3S)-1-[(2R)-2-chloro-2-fluoro-acetyl]-N-[(1S)-1-[[(7S,13S)-24-fluoro-(20M)-20-[2-[(1S)-1-methoxyethyl]-5-morpholino-3-pyridyl]-17,17-dimethyl-8,14-dioxo-21-(2,2,2-trifluoroethyl)-15-oxa-4-thia-9,21,27,28-tetrazapentacyclo[17.5.2.1^2,5.1^9,13.0^22,26]octacosa-1(25),2,5(28),19,22(26),23-hexaen-7-yl]carbamoyl]-2-methyl-propyl]-N-methyl-pyrrolidine-3-carboxamide] | 12 nM | 18 nM |  | 34 nM | 283 nM | 5 nM | 53 nM | 1390 nM | > 10000 nM |
| CO[C@@H](C)c1ncc(N2CCN(C)CC2)cc1-c1c2c3c(F)c(ccc3n1CC(F)(F)F)-c1cc(O)cc(c1)C[C@H](NC(=O)[C@H](C(C)C)N(C)C(=O)[C@H]1CCN(C(=O)[C@H](F)Cl)C1)C(=O)N1CCC[C@H](N1)C(=O)OCC(C)(C)C2 (atropisomer, axis not shown; (M)) [Example 27, (3S)-1-[(2R)-2-chloro-2-fluoro-acetyl]-N-[(1S)-1-[[(8S,14S)-26-fluoro-4-hydroxy-(21M)-21-[2-[(1S)-1-methoxyethyl]-5-(4-methylpiperazin-1-yl)-3-pyridyl]-18,18-dimethyl-9,15-dioxo-22-(2,2,2-trifluoroethyl)-16-oxa-10,22,28-triazapentacyclo[18.5.2.1^2,6.1^10,14.0^23,27]nonacosa-1(26),2,4,6(29),20,23(27),24-heptaen-8-yl]carbamoyl]-2-methyl-propyl]-N-methyl-pyrrolidine-3-carboxamide] | 11 nM | 10 nM |  | 31 nM | 37 nM | 3 nM | 2 nM | 3 nM | 7 nM |
| CCn1c(-c2cccnc2COC)c2c3cc(ccc31)-c1cc(O)cc(c1)C[C@H](NC(=O)[C@H](C(C)C)N(C)C(=O)C1CN(C(=O)[C@H](F)Cl)C1)C(=O)N1CCC[C@H](N1)C(=O)OCC(C)(C)C2 [RM461-A, reference compound] | > 10000 nM |  | 45 nM |  | 7920 nM | 49 nM | 27 nM | 6080 nM | > 10000 nM |
